This is an account of results in patent US20240108625A1, “CDK4/6 INHIBITORS AS A TREATMENT FOR CLONAL HEMATOPOIESIS” (Washington University, priority 2022, published 2024).

Each structure is given as a SMILES string. Entries after “also recorded” stand apart in the source; their conditions may differ.

The assay concerns HSPCs bearing CH mutations. Put plainly: Genomic analysis of CH clone expansion (change in VAF) in blood of SCLC patients randomized to carboplatin/etoposide with trilaciclib or placebo. Format: in vivo, human. As for the experimental part:
To evaluate the effect of trilaciclib on the expansion of CH clones in patients receiving chemotherapy, the following experiments were conducted. Blood samples obtained from a randomized, placebo-controlled trial of trilaciclib in SCLC patients receiving fist-line carboplatin and etoposide chemotherapy were sequenced pre- and post-treatment.
Blood samples were obtained from a clinical trial of SCLC patients receiving first-line carboplatin/etoposide combination chemotherapy randomized to concurrently receive the CDK4/6 inhibitor trilaciclib or placebo (FIG. 1). We performed targeted mutational analysis of genomic DNA from peripheral blood before and after five cycles of carboplatin/etoposide (˜5 months) in 59 individuals, 32 of whom received concurrent trilaciclib with each cycle of chemotherapy (FIG. 1, top row) and 27 who received placebo (FIG. 1, middle row). As a comparator group, sequential samples were obtained from 178 individuals from another longitudinal study (FIG. 1, bottom row) selected as cancer-free and matched in age and length of follow-up to the participants in the SCLC clinical trial. All samples were analyzed as described below to measure how the number of HSPCs bearing CH mutations (reflected by the variant allele frequency [VAF]) changed over time in individuals randomized to receive trilaciclib compared to placebo and to untreated healthy adults.
A custom-targeted CH panel was developed using VariantPlex (ArcherDX), an amplicon sequencing method that leverages bi-directional primers and molecular barcodes (MBCs) to enable reliable detection of extremely low VAF variants. The CH panel included exonic regions of the nine CH genes most commonly mutated in solid tumor patients (DNMT3A, TET2, ASXL1, PPM1D, TP53, CHEK2, JAK2, SRSF2, and SF3B1).
In brief, following DNA fragmentation, ligation with a universal MBC adapter was performed, tagging each DNA molecule with a unique molecular index (UMI) and allowing for unidirectional amplification of the sample using gene-specific primers. The resulting libraries were sequenced using a NovaSeq 6000 instrument. The average unique coverage per sample was 20,746×. Using tumor-normal dilution series from six AML patients, we developed a custom CH variant calling pipeline integrating three variant callers (Mutect2, Vardict, LoFreq) with post-calling filtering to remove germ line variants and artifacts. A critical feature of this pipeline is the empiric estimation of variant-specific error rates using a technical panel of normals consisting of 30 blood samples from children18.
The distribution of mutations within genes was characterized by notable enrichments for DDR genes (PPM1D, TP53, CHEK2) relative to DTA genes. For each CH mutation, the change in VAF between the first and second time points was calculated. […]

Consider `CN1CCN(c2ccc(Nc3ncc4cc5n(c4n3)C3(CCCCC3)CNC5=O)nc2)CC1` [trilaciclib], for which the “growth suppression of CH clones by gene: TET2” value (SCLC patients, carboplatin/etoposide, FIG. 5) is “largest impact”. For the same molecule, the “expansion of CH mutations in the DDR pathway (TP53, CHEK2, PPM1D) following chemotherapy (change in VAF)” value (SCLC patients, concurrent with five cycles of carboplatin/etoposide (~5 months), relative to placebo group) was “reduced expansion following chemotherapy; also recorded: lower expansion with chemotherapy”. The “growth of CH clones bearing mutations in epigenetic modifiers DTA (DNMT3A, TET2, ASXL1)” value (SCLC patients, concurrent with five cycles of carboplatin/etoposide (~5 months), vs placebo) is on record as “suppressed the growth of CH clones”. Also, the “carboplatin-related clonal hematopoiesis (DDR and DTA)” value (carboplatin chemotherapy) is “inhibited carboplatin-related clonal hematopoiesis; also recorded: protects against both DDR and DTA clonal hematopoiesis”.
